The record followed here is article PMC4521925, “17β-Hydroxysteroid Dehydrogenase Type 2 Inhibition: Discovery of Selective and Metabolically Stable Compounds Inhibiting Both the Human Enzyme and Its Murine Ortholog” (PLoS ONE, 2015).

Series [1] deals with T1, h17β-HSD1 (Homo sapiens, UniProt P14061).
T1 construct: h17β-HSD1 was obtained after precipitation with ammonium sulfate from the cytosolic fraction; from tissue; host or cells: human placenta, cytosolic fraction
T1 sequence (P14061 1-328): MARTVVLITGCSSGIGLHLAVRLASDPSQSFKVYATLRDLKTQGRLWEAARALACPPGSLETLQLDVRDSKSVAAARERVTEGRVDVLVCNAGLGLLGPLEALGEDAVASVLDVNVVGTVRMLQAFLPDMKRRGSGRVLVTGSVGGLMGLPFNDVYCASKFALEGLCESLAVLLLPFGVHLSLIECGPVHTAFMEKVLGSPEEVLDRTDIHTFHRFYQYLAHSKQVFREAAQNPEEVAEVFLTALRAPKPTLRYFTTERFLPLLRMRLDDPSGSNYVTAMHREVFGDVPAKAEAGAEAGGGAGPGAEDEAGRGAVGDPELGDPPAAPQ
Kind of series: Inhibition of h17β-HSD1 in cell-free assay. It counts as biochemical. As to conditions: human placental cytosolic fraction, substrate E1 [500 nM], cofactor NADH [500 μM]. The method in brief:
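Cytosolic enzyme from human placenta, ammonium sulfate-precipitated, incubated with 500 μM NADH, test compound and unlabelled plus [3H]-E1 (500 nM final) for 10 min at 37°C. Steroids separated by HPLC with radiodetection to quantify conversion.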

The target in series [2] is T2, m17β-HSD1 (Mus musculus, UniProt P51656).
T2 construct: host or cells: HEK 293 cells, transient transfection, 1000 g supernatant of the lysate
T2 sequence (P51656 1-344): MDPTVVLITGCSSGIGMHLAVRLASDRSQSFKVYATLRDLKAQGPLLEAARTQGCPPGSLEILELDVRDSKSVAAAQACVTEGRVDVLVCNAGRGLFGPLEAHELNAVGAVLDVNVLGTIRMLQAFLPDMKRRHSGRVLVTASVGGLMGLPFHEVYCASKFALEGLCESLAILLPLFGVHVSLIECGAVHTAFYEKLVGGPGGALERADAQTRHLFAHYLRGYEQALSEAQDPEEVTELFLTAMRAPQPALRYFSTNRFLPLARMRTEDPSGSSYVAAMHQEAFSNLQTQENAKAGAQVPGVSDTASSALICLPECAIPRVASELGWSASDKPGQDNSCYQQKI
In words: Inhibition of m17β-HSD1 in cell-free assay. It counts as biochemical. Particulars: recombinant m17β-HSD1, substrate E1 [500 nM], NADPH [500 μM]. Here is the method:
h17β-HSD2, h17β-HSD1, m17β-HSD2 and m17β-HSD1 cell-free assays were performed similarly, by incubating enzyme, tritiated substrate, cofactor and inhibitor, according to described procedures.
Recombinant m17β-HSD1 enzyme was produced by transfection of HEK 293 cells with a m17β-HSD1 expression plasmid (coding sequence of NM_010475 in pCMV6Entry vector, OriGene Technologies, Inc.) according to a described procedure. 48 hours after transfection cells were homogenized by sonication (3 x 10 s) in a buffer containing saccharose (40 mMTris, 250 mM saccharose, 5 mM EDTA, 7 mM DTT, 1 mM PMSF, pH 7,5). Cell lysate was centrifuged (1000 g, 15 min, 4°C) and 20% glycerol was added to the supernatant before aliquots were frozen and stored at -70°C.
The 17β-HSD1 inhibition assay was performed similarly to the h17β-HSD2 test. The human cytosolic enzyme was incubated with NADH [500 μM] while the mouse recombinant enzyme was reacted with NADPH [500 μM].Test compound and a mixture of unlabelled- and [^3H]-E1 (final concentration: 500 nM, 0.15 μCi) were added and mixed for 10 min at 37°C. Further treatment of the samples and HPLC separation was carried out as mentioned above for h17β-HSD2.

The target in series [3] is T3, ERα (Homo sapiens, UniProt P03372).
T3 sequence (P03372 1-595): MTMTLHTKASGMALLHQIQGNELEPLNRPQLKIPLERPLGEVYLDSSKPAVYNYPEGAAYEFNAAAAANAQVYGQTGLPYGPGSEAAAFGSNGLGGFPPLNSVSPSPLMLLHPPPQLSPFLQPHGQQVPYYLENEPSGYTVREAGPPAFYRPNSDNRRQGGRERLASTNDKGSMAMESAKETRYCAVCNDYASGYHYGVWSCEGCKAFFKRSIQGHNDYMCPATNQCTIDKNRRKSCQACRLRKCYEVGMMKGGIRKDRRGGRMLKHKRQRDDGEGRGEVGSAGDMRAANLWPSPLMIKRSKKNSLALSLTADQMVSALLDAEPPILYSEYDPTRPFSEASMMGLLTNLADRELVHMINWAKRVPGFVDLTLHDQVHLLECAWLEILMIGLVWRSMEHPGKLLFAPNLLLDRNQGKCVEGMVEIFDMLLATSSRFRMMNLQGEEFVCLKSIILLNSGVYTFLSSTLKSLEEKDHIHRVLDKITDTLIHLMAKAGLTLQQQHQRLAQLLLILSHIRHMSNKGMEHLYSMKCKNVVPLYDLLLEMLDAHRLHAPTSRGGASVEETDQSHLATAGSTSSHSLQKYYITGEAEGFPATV
In words: Estrogen receptor affinity in a cell-free assay (ERα). Particulars: 1000-fold excess relative to E2; recombinant human ERα. It counts as binding. Here is the method:
The binding affinity of selected compounds to ERα and ERβ was determined according to the recommendations of the US Environmental Protection Agency (EPA) by their Endocrine Disruptor Screening Program (EDSP)[24] using recombinant human proteins.
The potential inhibitors were dissolved in DMSO (5% final concentration). […] After incubation, ligand-receptor complexes were selectively bound to hydroxyapatite (83.5 g/LinTE-buffer). The bound complex was washed three times and resuspended in ethanol. For radiodetection, scintillator cocktail (Quickszint 212, Zinsser Analytic, Frankfurt) was added and samples were measured in a liquid scintillation counter (1450 LSC & Luminescence Counter, Perkin Elmer).
After the assay was established and validated, a modification was made to increase throughput.

SMILES strings stand for the structures. pIC50: −log10 of the molar value.

In the case of `Cc1cccc(N(C)C(=O)c2ccc(-c3cccc(C)c3F)cc2)c1` [Compound 21a, 2'-Fluoro-N,3'-dimethyl-N-(m-tolyl)-[1,1'-biphenyl]-4-carboxamide], the melting point (as a rule, the temperature of the solid-liquid transition) is 73 to 76 °C. For the same molecule, the pIC50 (usually the IC50 on a negative log10 scale, so that one unit is a factor of ten) in series [1] was 5.43. Besides, in series [2], the “inhibition of m17β-HSD1 at 1 μM” value was “None of the tested compounds showed any inhibition”. Further, in series [3], the “displacement of E2 from ERα” value was at most 20%.

Molecule `Cc1cccc(-c2ccc(C(=O)N(C)Cc3cccc(O)c3)cc2)c1F` [Compound 25, 2'-Fluoro-N-(3-hydroxybenzyl)-N,3'-dimethyl-[1,1'-biphenyl]-4-carboxamide] registered a melting point of 123 to 126 °C. In series [1], this molecule had a pIC50 of 4.51. Further, the “inhibition of m17β-HSD1 at 1 μM” value in series [2] is given as “None of the tested compounds showed any inhibition”. The “displacement of E2 from ERα” value in series [3] is at most 20%.

In turn, `COc1cccc(N(C)C(=O)c2ccc(-c3ccc(C)c(C)c3)cc2)c1` [Compound 17a, N-(3-methoxyphenyl)-N,3',4'-trimethyl-[1,1'-biphenyl]-4-carboxamide] had a pIC50 in series [1] of 4.88. In series [2], the “inhibition of m17β-HSD1 at 1 μM” value is on record as “None of the tested compounds showed any inhibition”. Moreover, in series [3], the “displacement of E2 from ERα” value is at most 20%.

In turn, `COc1cccc(N(C)C(=O)c2ccc(-c3cccc(C)c3)cc2)c1` [Compound 6a, N-(3-methoxyphenyl)-N,3'-dimethyl-[1,1'-biphenyl]-4-carboxamide] gave a pIC50 in series [1] of 5.19. Besides, the “displacement of E2 from ERα” value in series [3] is listed as at most 20%.
